Read-outs that look alike come from different tables or passages of the source.
Legend:
[1] = biological target: norepinephrine transporter (Rattus norvegicus, UniProt Q9WTR4); assay: Norepinephrine transporter binding (NET)
Protocol: (§1) Determination of inhibitory binding potencies of analogues at dopamine, serotonin, and norepinephrine transporters are carried out using standard receptor binding assays which are known in the art.
C. Norepinephrine Transporter Binding (NET)
J. Med Chem., 36, 2886-2890.

serotonin transporter = serotonin transporter (Rattus norvegicus, UniProt P31652); assay: Serotonin transporter binding (5-HTT)
Protocol: as §1
B. Serotonin Transporter Binding (5-HTT)
Mol. Pharmacol., 39, 339.

dopamine transporter [2] = biological target: T1, dopamine transporter (Rattus norvegicus, UniProt P23977); assay: [3H]WIN 35,428 binding to rat striatal membranes / dopamine transporter binding (DAT)
T1 construct: from tissue; P2 synaptosomes for uptake
Protocol: as §1
A. Dopamine Transporter Binding (DAT)

[3] = Drug discrimination, substitution for amphetamine; type: in vivo; settings: for response rates across test doses: amphetamine discrimination
[4] = biological target: striatal dopamine transporter (Macaca mulatta, UniProt Q7JHP9); assay: PET evaluation of 11C-labeled isomers
Protocol: The products were purified by HPLC on a C-18 cartridge eluted with MeOH: phosphate/triethylamine buffer, pH 7.2 (60:40).
After passage through a 0.22 μm filter, the sterile products were administered to three Rhesus monkeys and dynamic PET images were acquired over 90 minutes.

dopamine transporter [5] = settings: cited from earlier work; for protection from the effect of 10 mM N-ethylmaleimide: 10 μM cocaine, 300 μM dopamine, d-amphetamine
dopamine transporter [6] = biological target: T1, dopamine transporter; assay: Inhibition of high-affinity [3H]dopamine uptake into rat striatal nerve endings (synaptosomes); type: biochemical
Protocol: A. [^3H]Dopamine Uptake Studies
The effect of candidate compounds in antagonizing dopamine high-affinity uptake was determined using a method previously employed. For [^3H]DA uptake, dissected rat striata were homogenized with a Teflon-glass pestle in ice-cold 0.32 M sucrose and centrifuged for 10 min at 1000×g. The supernatant was centrifuged at 17,500×g for 20 min. This P2 synaptosomal pellet was resuspended in 30 volumes of ice-cold modified KRH buffer. An aliquot of the synaptosomal suspension was preincubated with the buffer and drug for 30 min at 37° C., and uptake initiated by the addition of [^3H]dopamine (5 nM, final concentration). After 5 min, uptake was terminated by adding 5 mL of cold buffer containing glucosamine as a substitute for NaCl and then finally by rapid vacuum filtration over GF-C glass fiber filters, followed by washing with two 5 mL volumes of ice-cold, sodium-free buffer. Radioactivity retained on the filters was determined by liquid scintillation spectrometry. […] It is identical to that calculated by subtracting the mean of identical tubes incubated at 0° C.

rats = assay: Intravenous drug self-administration; type: in vivo; settings: for self-administration responding: i.v., FR10, cocaine 1 mg/kg/infusion, analog 2 0.3-3 mg/kg/infusion, analog 3 0.125-0.5 mg/kg infusion, vs saline extinction
From the text: J. Neurosci., 16, 7416-7427.
Rats were initially trained to lever press for food pellets in standard operant boxes. Following lever press training, rats were implanted with polyvinyl chloride catheters into femoral veins under halothane anesthesia (2-3% in medical grade oxygen) and were allowed to recover for an additional 7 days before initiation of i.v. drug self-administration testing. During drug self-administration sessions, food pellets were no longer delivered, and instead intravenous injections of drugs were delivered by way of the catheter.
Following this second extinction test, self-administration of piperidine analog 2 was studied at doses of 1, 3, and 0.3 mg/kg/infusion in that order. Each dose was tested for five days. During all the re-acquisition test days, a priming infusion was given at the start of the session on each day.

[7] = Drug discrimination, substitution for cocaine and co-administration with cocaine; type: in vivo
Sprague-Dawley rats = assay: Locomotor activity (distance traveled, stereotypic behavior); type: in vivo
[8] = Table 2, read-out: DAT IC50 (nm)

Chain of serotonin transporter (P31652 whole entry): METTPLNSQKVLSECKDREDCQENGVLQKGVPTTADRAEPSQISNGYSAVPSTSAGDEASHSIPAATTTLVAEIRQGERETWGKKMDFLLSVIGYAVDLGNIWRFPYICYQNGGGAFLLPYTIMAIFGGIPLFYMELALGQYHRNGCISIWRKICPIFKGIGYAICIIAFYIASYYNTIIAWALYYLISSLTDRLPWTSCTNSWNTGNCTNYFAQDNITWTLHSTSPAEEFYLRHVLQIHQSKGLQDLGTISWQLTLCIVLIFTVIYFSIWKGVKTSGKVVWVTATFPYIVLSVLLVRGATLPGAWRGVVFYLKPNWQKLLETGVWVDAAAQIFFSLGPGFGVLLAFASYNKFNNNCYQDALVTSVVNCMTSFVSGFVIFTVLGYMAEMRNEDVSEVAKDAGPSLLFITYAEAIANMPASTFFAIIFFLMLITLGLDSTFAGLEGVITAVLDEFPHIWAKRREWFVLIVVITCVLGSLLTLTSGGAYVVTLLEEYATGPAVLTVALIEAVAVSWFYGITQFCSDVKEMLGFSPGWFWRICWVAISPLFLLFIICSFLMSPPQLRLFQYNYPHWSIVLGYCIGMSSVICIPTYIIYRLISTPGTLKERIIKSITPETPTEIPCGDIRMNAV
Chain of norepinephrine transporter (Q9WTR4 1-597): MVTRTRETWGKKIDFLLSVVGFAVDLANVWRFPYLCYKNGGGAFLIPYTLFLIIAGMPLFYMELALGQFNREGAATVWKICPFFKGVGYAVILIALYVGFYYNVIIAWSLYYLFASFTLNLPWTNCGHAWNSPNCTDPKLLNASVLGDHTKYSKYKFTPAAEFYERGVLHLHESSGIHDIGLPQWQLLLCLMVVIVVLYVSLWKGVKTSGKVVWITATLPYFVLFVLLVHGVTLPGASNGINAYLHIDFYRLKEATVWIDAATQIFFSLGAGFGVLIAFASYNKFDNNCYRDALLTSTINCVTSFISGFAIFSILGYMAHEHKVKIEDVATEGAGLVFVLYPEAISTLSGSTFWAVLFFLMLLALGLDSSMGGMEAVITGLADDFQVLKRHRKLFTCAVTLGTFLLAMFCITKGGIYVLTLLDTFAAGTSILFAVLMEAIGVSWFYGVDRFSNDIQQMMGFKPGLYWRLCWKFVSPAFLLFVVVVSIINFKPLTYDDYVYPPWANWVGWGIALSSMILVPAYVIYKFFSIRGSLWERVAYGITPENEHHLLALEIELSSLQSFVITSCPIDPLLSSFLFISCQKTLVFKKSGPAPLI
T1 sequence (P23977 whole entry): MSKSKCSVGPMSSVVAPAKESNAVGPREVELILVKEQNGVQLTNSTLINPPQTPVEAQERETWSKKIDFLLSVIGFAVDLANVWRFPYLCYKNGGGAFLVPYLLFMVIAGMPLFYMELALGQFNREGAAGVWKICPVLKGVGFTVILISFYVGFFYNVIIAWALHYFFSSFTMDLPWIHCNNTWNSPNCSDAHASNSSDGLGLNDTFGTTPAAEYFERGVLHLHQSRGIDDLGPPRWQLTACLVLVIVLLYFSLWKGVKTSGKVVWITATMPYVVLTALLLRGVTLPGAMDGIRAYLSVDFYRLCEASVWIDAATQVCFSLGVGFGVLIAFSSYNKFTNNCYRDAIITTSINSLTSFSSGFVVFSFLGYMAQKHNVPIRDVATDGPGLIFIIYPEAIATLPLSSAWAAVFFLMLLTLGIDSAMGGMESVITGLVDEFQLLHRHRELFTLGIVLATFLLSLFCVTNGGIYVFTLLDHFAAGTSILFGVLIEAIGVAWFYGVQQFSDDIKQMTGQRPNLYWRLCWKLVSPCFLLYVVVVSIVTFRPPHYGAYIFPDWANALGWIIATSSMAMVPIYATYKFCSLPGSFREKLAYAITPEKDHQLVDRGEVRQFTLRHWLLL
Chain of striatal dopamine transporter (Q7JHP9 1-620): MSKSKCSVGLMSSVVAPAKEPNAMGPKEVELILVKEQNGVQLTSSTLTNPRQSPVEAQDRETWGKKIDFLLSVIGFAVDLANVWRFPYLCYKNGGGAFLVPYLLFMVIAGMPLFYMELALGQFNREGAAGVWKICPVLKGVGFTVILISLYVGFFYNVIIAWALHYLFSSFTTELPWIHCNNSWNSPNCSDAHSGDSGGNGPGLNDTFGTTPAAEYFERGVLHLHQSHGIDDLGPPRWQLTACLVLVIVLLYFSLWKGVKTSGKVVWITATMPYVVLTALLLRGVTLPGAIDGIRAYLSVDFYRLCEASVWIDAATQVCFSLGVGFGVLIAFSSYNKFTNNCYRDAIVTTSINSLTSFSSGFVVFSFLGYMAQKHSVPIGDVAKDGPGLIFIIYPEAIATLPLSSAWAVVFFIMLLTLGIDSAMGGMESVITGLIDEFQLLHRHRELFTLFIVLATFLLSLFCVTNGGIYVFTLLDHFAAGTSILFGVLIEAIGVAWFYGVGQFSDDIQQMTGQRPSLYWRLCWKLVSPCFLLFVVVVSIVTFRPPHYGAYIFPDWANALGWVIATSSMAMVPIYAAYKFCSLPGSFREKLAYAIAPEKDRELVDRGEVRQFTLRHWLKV

COC(=O)C1CN(C)CCC1c1ccc(Br)cc1 (single isomer, unassigned; (+)) [Compound 69, (+)-Methyl 4β-(4-Bromophenyl)-1-methylpiperidine-3β-carboxylate]
IC50 [1]: 21600 nM | IC50 (serotonin transporter; 5-HTT IC50 (nm), Table 2): 4130 nM | IC50 (dopamine transporter [2]; DAT IC50 (nm), Table 2): 406 nM | melting point: 125 to 126 °C

CC(N)Cc1ccccc1 (centres unmarked) [amphetamine, reference compound]
response rates across test doses [3]: remained fairly stable | substitution for the discriminative stimulus effects of amphetamine ([3]; substitution tests): dose-dependent and complete substitution

COC(=O)[C@@H]1CN(C)CC[C@@H]1c1ccc2ccccc2c1 (racemic) [Compound 74, (±)-Methyl 4β-(2-Naphthyl)-1-methylpiperidine-3β-carboxylate]
IC50 [1]: 2570 nM | IC50 (serotonin transporter; 5-HTT IC50 (nm), Table 2): 107 nM | IC50 (dopamine transporter [2]; DAT IC50 (nm), Table 2): 13 nM | melting point: 100 to 101 °C

COC(=O)C1CN(C)CCC1c1ccc(Cl)cc1 (single isomer, unassigned; isomer 4) [cis isomer, 4-(4-chlorophenyl)-3-carbomethoxy-N-methylpiperidine]
brain accumulation of 11C-labeled tracer (PET) ([4]; dynamic PET over 90 minutes): greater nonspecific accumulation in the cortex

COC(=O)C1CN(C)CCC1c1ccc(Cl)cc1 (stereo not drawn) [trans isomers, 4-(4-chlorophenyl)-3-carbomethoxy-N-methylpiperidine]
striatal activity after unlabeled CFT ([4]; CFT given 60 minutes after injection): selective decrease in the striatal activity

CCN1C(=O)C=CC1=O [N-Ethyhmaleimide]
inhibition of the specific binding of [3H]mazindol (dopamine transporter [5]; background): about 95%

NCCc1ccc(O)c(O)c1 [dopamine]
protection from the effect of 10 mM N-ethylmaleimide (dopamine transporter [5]): neither 300 μM dopamine nor d-amphetamine afforded any significant protection

COC(=O)C1CN(C)CCC1c1cccc2ccccc12 (racemic) [Compound 73, (±)-Methyl 4β-(1-Naphthyl)-1-methylpiperidine-3β-carboxylate]
IC50 ([1]; Table 2, read-out: NET IC50 (nm)): 2700 nM | IC50 (serotonin transporter; 5-HTT IC50 (nm), Table 2): 1310 nM | IC50 (dopamine transporter [2]; [8]): 173 nM | melting point: 108 to 109 °C

COC(=O)C1CN(CCCc2ccccc2)CCC1c1ccc(Cl)cc1 (single isomer, unassigned; (-)) [Compound 48, (−)-Methyl 4β-(4-Chlorophenyl)-1-(3-phenylpropyl)-piperidine-3β-carboxylate]
IC50 [1]: 1150 nM | IC50 (serotonin transporter): 73200 nM | IC50 (dopamine transporter [2]; DAT IC50 (nm), Table 2): 157 nM | melting point: 73 to 75 °C

C[C@H](N)Cc1ccccc1 [d-amphetamine]
protection from the effect of 10 mM N-ethylmaleimide (dopamine transporter [5]): neither 300 μM dopamine nor d-amphetamine afforded any significant protection

COC(=O)[C@@H]1CN(C)CC[C@@H]1c1ccc(Cl)cc1 [Compound 3, (−)-Methyl 4β-(4-Chlorophenyl)-1-methylpiperidine-3β-carboxylate]
IC50 [1]: 1630 nM | IC50 (dopamine transporter [6]; Table 2, unit inferred, read-out: Dopamine Uptake): 85 nM | IC50 (dopamine transporter [6]; rat striatal synaptosomes, Table 1, read-out: IC50 (nM) [3H]dopamine uptake): 85.2 ± 2.6 nM | self-administration responding (rats): reliably self-administered | IC50 (dopamine transporter [2]; [8]): 25 nM | IC50 (dopamine transporter [2]; rat striatal membranes, Table 1, read-out: IC50 (nM) [3H]WIN 35,428 binding): 24.8 ± 1.6 nM

COC(=O)[C@@H]1CN(C)CC[C@H]1c1ccc(Cl)cc1 (racemic) [Compound 2, (±)-trans-Methyl 4-(4-Chlorophenyl)-1-methylpiperidine-3-carboxylate]
drug choice and response rate performance on co-administration with cocaine ([7]; analog 2 10 mg/kg plus cocaine 1.25 and 5 mg/kg, vs cocaine alone): did not significantly alter | response rates compared with cocaine (10 mg/kg) ([7]; analog 2 5 and 10 mg/kg): substantially lower | maximum cocaine-lever responding ([7]; analog 2 5 and 20 mg/kg): 40% | time course of stereotypic response (Sprague-Dawley rats; 90 minutes following the drug injection): persistent at 90 minutes | distance traveled (Sprague-Dawley rats; i.p., cocaine 10 mg/kg, analog 2 3-20 mg/kg, vs saline control): did not alter | stereotypic behavior / stereotypic time (Sprague-Dawley rats; i.p., cocaine 10 mg/kg, analog 2 10 and 20 mg/kg): small, statistically nonsignificant increase | response rates across test doses [3]: remained fairly stable | maximum amphetamine-lever responding ([3]; substitution tests): 53% | number of infusions delivered vs saline extinction test (rats; analog 2, all doses tested): not significantly different | self-administration responding (rats): failed to restore | IC50 (dopamine transporter [2]; DAT IC50 (nm), Table 2): 196 nM | IC50 (dopamine transporter [2]; IC50 (nM) [3H]WIN 35,428 binding, rat striatal membranes, Table 1): 197 ± 7.9 nM
